These results are taken from patent USRE36477E, “Benzoic acid derivatives and process for preparing the same” (Taiho Pharmaceutical Co., Ltd., priority 1988, dated 1999).

Each structure is given as a SMILES string.

The first experiment concerns human acute promyelocytic leukemia cells (HL-60). Nature of the experiment: Differentiation of human acute promyelocytic leukemia cells (HL-60), morphological changes of nuclei and NBT reduction. Type of experiment: cell-based. The conditions noted are these: HL-60 cells, 4 days culture, Wright-Giemsa stain. As for the experimental part: The test of the activities of the compounds of this invention has been conducted by measuring the concentration required for inducing the differentiation of human acute promyelocytic leukemia cells (HL 60), according to the methods described in detail hereinafter.
The HL-60 cells are cultured in plastic flasks in RPMI 1640 medium supplemented with 5% heat-inactivated fetal calf serum and antibiotics (penicillin G and streptomycin). The cells (3×10^4 /ml) are cultured with a compound of the present invention for 4 days. The cells are fixed and stained with Wright-Giemsa to examine the morphological changes of the nuclei. […] The biochemical activity of cells treated with the compound is measured as follows:
The cells after 5 days incubation are centrifuged and diluted with RPMI 1640 medium, supplemented with 5% fetal calf serum, to provide a definite number of the cells. To the diluted cell suspension are then added 200 ng/ml of 12-o-tetradodecanoylphorbol-13-acetate (TPA) and the resulting culture medium is then incubated for 20 minutes at 37° C. in the presence of 0.1% of NBT. Thus, the mature differentiated cells containing blue-black formazan are counted by microscope, so that the ratio of the cells having the ability to reduce NBT, to total cells, can be calculated.
As a positive control for comparison, the known compounds represented by the formula (II) and trans retinoic acid were used.
Consider `CC1=C(/C=C/C(C)=C/C=C/C(C)=C/C(=O)O)C(C)(C)CCC1` [retinoic acid], for which the “morphological changes of the nuclei (differentiation)” value was “differentiated to mature granulocytes (myelocytes, metamyelocytes and neutrophiles)”.

The same experiment, now with this note: Homo sapiens, 96 h; HL-60 cells; Table 1; read-out: ED50 (effective doses which cause differentiation of 50% of the cultured cells).
Consider `C[Si](C)(C)c1cc(NC(=O)c2ccc(C(=O)O)cc2)cc([Si](C)(C)C)c1`, for which the EC50 came to 20 nM.
In the case of `CC(C)(C)c1cccc(C(=O)/C=C/c2ccc(C(=O)O)cc2)c1`, the EC50 was 100 nM.
In the case of `CC(C)(C)c1cccc(NC(=O)c2ccc(C(=O)O)cc2)c1`, the EC50 turned out to be 1000 nM.
Consider `CC(C)(C)c1cc(C(=O)/C=C/c2ccc(C(=O)O)cc2)cc(C(C)(C)C)c1`, for which the EC50 is 0.4 nM.

Still in this experiment, the particulars now being: Homo sapiens, HL-60, 96 h, read-out: ED50 (effective doses which cause differentiation of 50% of the cultured cells).
Consider `C[Si](C)(C)c1cccc(NC(=O)c2ccc(C(=O)O)cc2)c1`, for which the EC50 is 80 nM.
With `C[Si](C)(C)c1cc(C(=O)/C=C/c2ccc(C(=O)O)cc2)cc([Si](C)(C)C)c1`, the EC50 was 0.2 nM.
Turning to `C[Si](C)(C)c1cccc(/C=C/c2ccc(C(=O)O)cc2)c1`, the EC50 amounted to 60 nM.
Take `CC1=C(/C=C/C(C)=C/C=C/C(C)=C/C(=O)O)C(C)(C)CCC1` [retinoic acid]: the EC50 amounted to 2 nM.
